For 38 compounds, IC50 and inhibition in vivo results are on record in ChEMBL document CHEMBL1130038, “1,2-Diarylpyrroles as potent and selective inhibitors of cyclooxygenase-2” (J Med Chem, 1997).

Assay [1] deals with T1, Prostaglandin G/H synthase 1 (Homo sapiens, UniProt P23219).
Description: In vitro inhibitory activity against human prostaglandin G/H synthase 1
For assay [2], the species on record is Rattus norvegicus. Description: animal or person. Conditions: po, read-out: Inhibition; call rule not given here.
Assay [3] has as its target T2, Prostaglandin G/H synthase 2 (Homo sapiens, UniProt P35354).
T2 sequence (P35354 whole entry): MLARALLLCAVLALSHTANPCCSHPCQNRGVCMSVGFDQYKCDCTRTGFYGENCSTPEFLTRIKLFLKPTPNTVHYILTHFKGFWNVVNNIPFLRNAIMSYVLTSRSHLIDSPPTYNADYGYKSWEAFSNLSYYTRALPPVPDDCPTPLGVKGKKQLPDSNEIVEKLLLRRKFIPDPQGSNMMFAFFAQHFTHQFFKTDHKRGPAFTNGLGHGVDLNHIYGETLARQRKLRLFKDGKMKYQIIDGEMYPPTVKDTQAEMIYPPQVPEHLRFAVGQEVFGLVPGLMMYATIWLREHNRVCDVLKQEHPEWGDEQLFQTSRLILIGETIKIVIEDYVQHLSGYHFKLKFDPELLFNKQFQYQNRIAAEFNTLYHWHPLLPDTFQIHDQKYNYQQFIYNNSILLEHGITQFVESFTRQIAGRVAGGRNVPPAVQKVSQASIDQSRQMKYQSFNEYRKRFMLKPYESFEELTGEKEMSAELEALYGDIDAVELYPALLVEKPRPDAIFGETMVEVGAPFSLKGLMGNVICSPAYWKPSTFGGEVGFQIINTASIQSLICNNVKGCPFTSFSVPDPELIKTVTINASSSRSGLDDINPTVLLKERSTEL
Description: In vitro inhibitory activity against human Prostaglandin G/H synthase 2; NA indicates inactive

The target of assay [4] is T1, Prostaglandin G/H synthase 1. The source holds these as a separate data set.
Description: In vitro inhibitory activity against human Prostaglandin G/H synthase 1; NA indicates inactive
The species named for assay [5] is Rattus norvegicus. As to the kind of experiment: animal or person. The note with it: po, read-out: Inhibition. The source holds these as a separate data set.
For assay [6], the species on record is Homo sapiens. As to the kind of experiment: tissue or blood.
Description: Inhibition of LPS-induced PGE-2 production in the human whole blood.
For assay [7], the species on record is Homo sapiens. Description: tissue or blood. The source holds these as a separate data set.
Description: Inhibition of TXB2 production in the human whole blood.
Assay [8] addresses T1, Prostaglandin G/H synthase 1. Type of assay: functional, cell-based, HL-60.
Description: In vitro inhibitory activity against Prostaglandin G/H synthase 1 in retinoic acid stimulated HL-60 cells
Assay [9] is filed under the species Homo sapiens. As to the kind of experiment: tissue or blood. The source holds these as a separate data set.
Assay [10] is filed under the species Homo sapiens. As to the kind of experiment: tissue or blood. This is another data set of the same source.
Description: Ability to inhibit LPS-induced PGE-2 production in human whole blood
In assay [11] the target is T2, Prostaglandin G/H synthase 2. The source holds these as a separate data set.
The target of assay [12] is T1, Prostaglandin G/H synthase 1. This is another data set of the same source.

Where only a bound is given, the exact number is not on record here.

T1 sequence (P23219 whole entry): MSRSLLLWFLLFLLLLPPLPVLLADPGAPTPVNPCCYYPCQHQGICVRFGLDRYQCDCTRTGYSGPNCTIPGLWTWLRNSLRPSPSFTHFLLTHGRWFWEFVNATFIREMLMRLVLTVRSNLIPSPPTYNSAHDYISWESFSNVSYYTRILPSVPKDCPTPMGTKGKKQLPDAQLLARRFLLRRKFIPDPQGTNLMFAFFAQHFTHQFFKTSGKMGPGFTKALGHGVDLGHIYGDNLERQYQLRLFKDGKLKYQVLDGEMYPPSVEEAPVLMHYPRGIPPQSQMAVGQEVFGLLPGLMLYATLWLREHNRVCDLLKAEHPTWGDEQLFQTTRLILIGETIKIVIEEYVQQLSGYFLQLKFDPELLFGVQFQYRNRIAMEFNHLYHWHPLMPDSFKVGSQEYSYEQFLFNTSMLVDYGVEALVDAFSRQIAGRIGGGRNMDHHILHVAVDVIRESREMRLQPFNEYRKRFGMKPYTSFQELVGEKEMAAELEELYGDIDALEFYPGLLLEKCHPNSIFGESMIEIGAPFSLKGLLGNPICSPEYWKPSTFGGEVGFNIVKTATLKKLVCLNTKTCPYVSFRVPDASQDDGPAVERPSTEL

Take `CN(C)S(=O)(=O)c1ccc(-n2cccc2-c2ccc(F)cc2)cc1`: the half-maximal inhibitory concentration (IC50) in [1] was more than 100 µM.

In assay [1], `Cc1ccc(-c2ccc(S(C)(=O)=O)cc2)n1C1CCCCC1` gave a concentration for half-maximal inhibition (IC50) of more than 100 µM. As for `Cc1ccc(-c2ccc(S(C)(=O)=O)cc2)n1-c1ccc(F)c(F)c1`, in [2], the inhibition in vivo at 10 mg/kg came out at 17%. Turning to `CS(=O)(=O)c1ccc(-c2cccn2-c2ccc(F)cc2)cc1`, the 50% inhibitory concentration (IC50) in [1] was more than 100 µM. The same measure, in the same setting: for `CS(=O)(=O)c1cccc(-n2cccc2-c2ccc(F)cc2)c1` the value was more than 100 µM.

As for `Cc1ccc(-c2ccc(S(C)(=O)=O)cc2)n1-c1ccc(C(F)(F)F)cc1`, in assay [2], the inhibition in vivo at 10 mg/kg stood at 31%.

`Cc1ccc(-c2ccc(F)cc2)n1-c1ccc([S+](C)[O-])cc1` (stereo not given): the 50% inhibitory concentration (IC50) result in assay [3] and in assay [4] was “Not Active” in each case. As for `Cc1c(S(=O)(=O)C(F)(F)F)cc(-c2ccc(S(C)(=O)=O)cc2)n1-c1ccc(F)cc1`, the 50% inhibitory concentration (IC50) in assay [1] was more than 100 µM. Moreover, the inhibition in vivo at 20 mg/kg in assay [5] was determined as 30%. `CCc1ccc(-c2ccc(S(C)(=O)=O)cc2)n1-c1ccc(F)cc1`: in [1], the 50% inhibitory concentration (IC50) was more than 100 µM.

As to `Cc1ccc(-c2ccc(S(C)(=O)=O)cc2)n1Cc1ccc(F)cc1`, the IC50 in assay [1] was more than 100 µM. Same read-out and setting: for `Cc1c(COc2ccc(Cl)cc2)cc(-c2ccc(S(C)(=O)=O)cc2)n1-c1ccc(F)cc1` the value was more than 100 µM.

Turning to `CS(=O)(=O)c1ccc(-c2ccc(CCC(=O)O)n2-c2ccc(F)cc2)cc1`, in [1], the IC50 was more than 100 µM. The same measure, in the same setting: for `CS(=O)(=O)c1ccc(-c2ccc(C(F)(F)F)n2-c2ccc(F)cc2)cc1` the value was more than 100 µM. In the case of `CC(=O)c1cc(-c2ccc(S(C)(=O)=O)cc2)n(-c2ccc(F)cc2)c1C`, in assay [2], the inhibition in vivo at 10 mg/kg came out at 13%. Turning to `CC(=O)c1ccc(-n2c(C)ccc2-c2ccc(F)cc2)cc1`, the IC50 entry in assay [3] and in [4] was “Not Active” in each case. As to `CN(C)S(=O)(=O)c1ccc(-n2c(CCC(=O)O)ccc2-c2ccc(F)cc2)cc1`, the half-maximal inhibitory concentration (IC50) is 4.4 µM in assay [6] and more than 50 µM in assay [7]. Consider `Cc1c(COc2cccc(Cl)c2)cc(-c2ccc(S(C)(=O)=O)cc2)n1-c1ccc(F)cc1`, for which, in [1], the IC50 was more than 100 µM. `CS(=O)(=O)c1ccc(-n2cccc2-c2ccc(F)cc2)cc1`: in assay [2], the inhibition in vivo at 10 mg/kg came to 42%. Regarding `COc1ccc(-c2ccc(CCC(=O)O)n2-c2ccc(C(C)=O)cc2)cc1`, the IC50 in assay [8] was found to be 1 µM; in assay [1] it was 25 µM; in [9], 0.3 µM; in assay [10], 1.5 µM. Compound `CCS(=O)(=O)c1ccc(-n2cccc2-c2ccc(F)cc2)cc1` yielded an IC50 in assay [1] of more than 100 µM. On to `NS(=O)(=O)c1ccc(-n2cccc2-c2ccc(F)cc2)cc1`, for which the inhibition in vivo at 10 mg/kg in assay [2] was 30%. With `COc1ccc(-c2ccc(C)n2-c2ccc(C(C)=O)cc2)cc1`, the half-inhibitory concentration (IC50) result in assay [3] and in assay [4] was “Not Active” in each case.

`CCCCn1c(C)ccc1-c1ccc(S(C)(=O)=O)cc1` returned an IC50 in [1] of more than 100 µM. Further, the inhibition in vivo at 10 mg/kg in assay [2] amounted to 1%. Consider `CCN(CC)OC(=O)c1ccc(-n2c(C)ccc2-c2ccc(F)cc2)cc1`, for which the IC50 entry in assay [11] and in [12] was “Active” in each case. In the case of `Cc1c(Br)cc(-c2ccc(S(C)(=O)=O)cc2)n1-c1ccc(F)cc1`, in assay [2], the inhibition in vivo at 10 mg/kg is 34%. In the case of `COC(=O)c1ccc(-n2c(C)ccc2-c2ccc(F)cc2)cc1`, the IC50 entry in [3] and in assay [4] was “Not Active” each time. With `Cc1ccc(-c2ccc(S(C)(=O)=O)cc2)[nH]1`, the half-inhibitory concentration (IC50) in [1] was more than 100 µM. Turning to `Cc1ccc(-n2c(C)ccc2-c2ccc(S(C)(=O)=O)cc2)cc1`, the inhibition in vivo at 10 mg/kg in assay [2] came to 25%. In [1], `CS(=O)(=O)c1ccc(-n2cccc2-c2ccc(F)cc2)cc1Cl` yielded an IC50 of more than 100 µM. Still for that read-out and setting: the figure for `O=S(=O)(c1ccccc1)c1ccc(-n2cccc2-c2ccc(F)cc2)cc1` is more than 100 µM. In the case of `Cc1ccc(-c2ccc(S(C)(=O)=O)cc2)n1-c1ccccc1`, the inhibition in vivo at 10 mg/kg in assay [2] turned out to be 21%. The compound `Cc1c(CN(C)C)cc(-c2ccc(S(C)(=O)=O)cc2)n1-c1ccc(F)cc1` yielded a half-inhibitory concentration (IC50) in [1] of more than 100 µM.

With `Cc1c(C(Oc2cccc(Cl)c2)C(F)(F)F)cc(-c2ccc(S(C)(=O)=O)cc2)n1-c1ccc(F)cc1` (stereo not given), the IC50 in assay [1] is more than 100 µM. Regarding `Cc1c(C(O)C(F)(F)F)cc(-c2ccc(S(C)(=O)=O)cc2)n1-c1ccc(F)cc1` (stereo not given), the inhibition in vivo at 20 mg/kg in assay [5] is 15%. In the case of `CNS(=O)(=O)c1ccc(-n2cccc2-c2ccc(F)cc2)cc1`, the half-maximal inhibitory concentration (IC50) in assay [1] was more than 100 µM. As for `Cc1ccc(-c2ccc(S(C)(=O)=O)cc2)n1-c1ccc(F)cc1`, in [1], the half-inhibitory concentration (IC50) is more than 100 µM. In addition, in assay [2], the inhibition in vivo at 10 mg/kg came out at 25%. Regarding `Cc1ccc(-c2ccc(S(C)(=O)=O)cc2)n1C(C)C`, the half-maximal inhibitory concentration (IC50) in assay [1] is more than 100 µM.

On to `Cc1ccc(-c2ccc(F)cc2)n1-c1ccc(S(C)(=O)=O)cc1`, for which the IC50 in assay [1] was more than 100 µM.
